US20150099800A1, “NOVEL LIPASE INHIBITORS, REPORTER SUBSTRATES AND USES THEREOF” (Northeastern University, priority 2012, published 2015)
Entries after “also recorded” stand apart in the source; their conditions may differ. Like-named read-outs stand apart in the source and are kept apart here.

Assays:
[1] = biological target: T1, Pancreatic Lipase (Porcine) (Sus scrofa, UniProt P00591); format: biochemical
T1 construct: purchased Sigma L3126
T1 sequence (P00591 1-450): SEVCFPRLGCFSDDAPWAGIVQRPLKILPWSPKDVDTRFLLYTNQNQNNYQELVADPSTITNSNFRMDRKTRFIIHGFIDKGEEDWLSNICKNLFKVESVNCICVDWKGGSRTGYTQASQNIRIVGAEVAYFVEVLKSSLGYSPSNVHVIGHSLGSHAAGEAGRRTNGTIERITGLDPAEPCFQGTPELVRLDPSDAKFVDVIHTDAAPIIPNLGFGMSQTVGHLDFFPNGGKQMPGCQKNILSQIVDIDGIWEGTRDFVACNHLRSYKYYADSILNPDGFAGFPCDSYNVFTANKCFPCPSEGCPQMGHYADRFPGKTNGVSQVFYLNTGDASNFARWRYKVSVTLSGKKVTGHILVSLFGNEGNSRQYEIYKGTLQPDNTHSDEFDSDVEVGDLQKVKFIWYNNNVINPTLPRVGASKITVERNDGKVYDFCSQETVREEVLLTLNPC

MAGL [2] = biological target: T2, MAGL (Homo sapiens, UniProt Q99685); experiment: hMAGL coumarin substrate fluorescence assay; format: biochemical; parameters: The N-terminal his-tagged full length human monoacylglycerol lipase used; His (N); made in house; host or cells: E. coli
T2 sequence (Q99685 1-303): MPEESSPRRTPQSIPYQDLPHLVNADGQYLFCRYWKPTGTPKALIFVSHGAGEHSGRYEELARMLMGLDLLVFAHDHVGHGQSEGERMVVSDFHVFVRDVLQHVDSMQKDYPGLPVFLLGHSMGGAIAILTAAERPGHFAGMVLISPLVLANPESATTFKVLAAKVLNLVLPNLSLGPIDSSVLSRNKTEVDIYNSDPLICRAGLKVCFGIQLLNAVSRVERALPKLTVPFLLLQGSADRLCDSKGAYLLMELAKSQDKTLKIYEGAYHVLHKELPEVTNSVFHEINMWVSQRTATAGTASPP

mDAGLα = biological target: T3, mDAGLα (Mus musculus, UniProt Q6WQJ1); experiment: Radio-TLC assay with [14C]SAG substrate, mDAGLα
T3 sequence (Q6WQJ1 1-1044): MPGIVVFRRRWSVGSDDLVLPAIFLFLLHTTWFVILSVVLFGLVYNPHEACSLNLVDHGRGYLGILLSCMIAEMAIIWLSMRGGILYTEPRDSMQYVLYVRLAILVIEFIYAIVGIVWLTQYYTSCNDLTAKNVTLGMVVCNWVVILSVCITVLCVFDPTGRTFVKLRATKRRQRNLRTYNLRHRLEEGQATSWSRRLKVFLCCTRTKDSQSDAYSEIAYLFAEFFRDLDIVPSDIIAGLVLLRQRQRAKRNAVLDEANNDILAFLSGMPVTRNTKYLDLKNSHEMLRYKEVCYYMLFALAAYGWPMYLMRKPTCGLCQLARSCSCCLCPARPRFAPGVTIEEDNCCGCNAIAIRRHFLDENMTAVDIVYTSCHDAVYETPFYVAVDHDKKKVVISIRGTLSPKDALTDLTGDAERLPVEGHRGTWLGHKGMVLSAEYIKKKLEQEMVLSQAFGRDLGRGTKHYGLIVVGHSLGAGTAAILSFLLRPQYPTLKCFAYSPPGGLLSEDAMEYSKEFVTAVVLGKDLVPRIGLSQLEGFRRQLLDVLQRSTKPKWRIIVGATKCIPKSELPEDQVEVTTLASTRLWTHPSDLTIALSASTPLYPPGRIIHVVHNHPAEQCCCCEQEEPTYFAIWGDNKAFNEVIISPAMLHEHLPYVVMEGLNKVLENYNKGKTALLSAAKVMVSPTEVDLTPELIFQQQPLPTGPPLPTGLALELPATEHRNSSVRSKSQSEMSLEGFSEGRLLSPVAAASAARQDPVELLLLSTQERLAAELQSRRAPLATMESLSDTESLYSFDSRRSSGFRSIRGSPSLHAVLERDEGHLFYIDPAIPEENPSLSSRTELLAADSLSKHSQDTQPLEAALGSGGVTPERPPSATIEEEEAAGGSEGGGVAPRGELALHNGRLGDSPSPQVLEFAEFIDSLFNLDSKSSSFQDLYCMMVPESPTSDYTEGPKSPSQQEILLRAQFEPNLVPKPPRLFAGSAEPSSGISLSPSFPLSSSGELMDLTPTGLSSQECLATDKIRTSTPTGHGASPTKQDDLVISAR

rFAAH = biological target: T4, rFAAH (Rattus norvegicus, UniProt P97612); experiment: rFAAH coumarin substrate fluorescence assay; format: biochemical
T4 construct: His (N); made in house; host or cells: E. coli (cell line provided by the Cravatt group)
T4 sequence (P97612 30-579 limits assumed): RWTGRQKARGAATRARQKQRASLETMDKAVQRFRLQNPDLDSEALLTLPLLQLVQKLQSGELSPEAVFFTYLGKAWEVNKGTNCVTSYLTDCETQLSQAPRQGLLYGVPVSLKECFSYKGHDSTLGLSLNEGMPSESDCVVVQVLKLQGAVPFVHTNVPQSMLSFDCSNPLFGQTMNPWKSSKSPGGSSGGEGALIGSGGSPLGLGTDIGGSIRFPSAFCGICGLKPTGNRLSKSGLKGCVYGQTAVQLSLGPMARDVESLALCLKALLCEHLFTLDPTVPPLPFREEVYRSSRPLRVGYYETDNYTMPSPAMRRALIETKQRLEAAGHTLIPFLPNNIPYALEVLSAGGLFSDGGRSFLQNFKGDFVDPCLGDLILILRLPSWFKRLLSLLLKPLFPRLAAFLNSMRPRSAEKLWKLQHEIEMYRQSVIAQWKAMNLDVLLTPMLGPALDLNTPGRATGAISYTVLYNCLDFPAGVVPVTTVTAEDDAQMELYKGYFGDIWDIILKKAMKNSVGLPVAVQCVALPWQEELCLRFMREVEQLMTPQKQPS

[3] = system: Lipoprotein Lipase (Bacterial); format: biochemical, Pseudomonas sp.
hDAGLα [4] = biological target: T5, hDAGLα (Homo sapiens, UniProt Q9Y4D2)
T5 sequence (Q9Y4D2 1-1042): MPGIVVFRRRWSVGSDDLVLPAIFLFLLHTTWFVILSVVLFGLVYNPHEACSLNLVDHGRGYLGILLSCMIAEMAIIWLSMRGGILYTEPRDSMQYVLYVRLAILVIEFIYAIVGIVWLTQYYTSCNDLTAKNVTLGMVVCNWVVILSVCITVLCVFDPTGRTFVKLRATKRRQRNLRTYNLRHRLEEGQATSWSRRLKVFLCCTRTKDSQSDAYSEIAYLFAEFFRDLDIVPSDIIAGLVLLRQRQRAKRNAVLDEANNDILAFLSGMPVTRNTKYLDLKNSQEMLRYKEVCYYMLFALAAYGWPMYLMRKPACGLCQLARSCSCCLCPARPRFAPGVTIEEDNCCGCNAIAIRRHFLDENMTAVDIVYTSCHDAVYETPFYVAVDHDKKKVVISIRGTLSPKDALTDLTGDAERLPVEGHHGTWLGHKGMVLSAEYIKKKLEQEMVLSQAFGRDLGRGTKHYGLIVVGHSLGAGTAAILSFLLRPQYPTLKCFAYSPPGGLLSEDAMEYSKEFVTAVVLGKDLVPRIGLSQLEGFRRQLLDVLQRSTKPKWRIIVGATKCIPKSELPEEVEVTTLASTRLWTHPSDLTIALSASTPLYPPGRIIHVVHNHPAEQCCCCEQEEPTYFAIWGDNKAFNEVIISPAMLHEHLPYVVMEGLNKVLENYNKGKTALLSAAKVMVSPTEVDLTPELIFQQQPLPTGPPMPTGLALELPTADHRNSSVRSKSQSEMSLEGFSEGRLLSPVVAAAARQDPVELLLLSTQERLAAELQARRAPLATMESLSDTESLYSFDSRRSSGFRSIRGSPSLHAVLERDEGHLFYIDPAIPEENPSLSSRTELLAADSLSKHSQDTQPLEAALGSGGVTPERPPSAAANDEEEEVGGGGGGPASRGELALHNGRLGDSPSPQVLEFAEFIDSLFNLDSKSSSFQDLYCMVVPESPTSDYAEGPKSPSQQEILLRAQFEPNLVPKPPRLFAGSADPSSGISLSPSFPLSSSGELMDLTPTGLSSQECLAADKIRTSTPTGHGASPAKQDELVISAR

FAAH = details: cited from earlier work
DAGL = details: cited from earlier work
MAGL [5] = biological target: T2, MAGL; details: cited from earlier work
cannabinoid receptors = details: literature; cited from earlier work
hDAGLα [6] = biological target: T5, hDAGLα; remark: listed apart in the source
hDAGLα [7] = biological target: T5, hDAGLα; experiment: Evaluation of FRET reporter substrates for enzymatic hydrolysis; format: biochemical; parameters: V5; His; expressed in transfected cells; host or cells: HEK293T, transient; crude cell lysate or membrane preparation
Description: Reporter compounds as substrates for hDAGLα activity with HEK293T cell lysates in the presence of 10% DMSO are shown. A) Pyrenyl analogs (17)-(19), (21), and (22) (EX 320 nm, EM 400 nm). B) NBD analog (20) (EX 485 nm, EM 535 nm).
A convenient in vitro fluorometric esterase assay utilizing the BioTek Instruments Synergy™ HT Multi-Mode Microplate 96-well reader was developed that measured nanomolar concentrations of fluorescent reaction product.

CCCCCCCCCCC[C@@H](C[C@@H]1OC(=O)[C@H]1CCCCCC)OC(=O)[C@@H](NC=O)[C@H](C)CC [Compound 5]
Pancreatic Lipase (Porcine) inhibition at 10 μM (%) ([1]; 10 μM): 98% | hMAGL inhibition at 10 μM (%) (MAGL [2]): 1% | mDAGLα inhibition at 10 nM (%) (mDAGLα): 60% | mDAGLα inhibition at 100 nM (%) (mDAGLα): 61% | mDAGLα inhibition at 1000 nM (%) (mDAGLα): 88% | mDAGLα inhibition at 10000 nM (%) (mDAGLα): 100% | rFAAH inhibition at 10 μM (%) (rFAAH; 10 μM): 3% | Lipoprotein Lipase (Bacterial) inhibition at 10 μM (%) ([3]; 10 μM): 61% | hDAGLα inhibition at 10 μM (0.05% Triton X-100) (%), FRET (hDAGLα [4]; 10 μM): 99% | hDAGLα inhibition at 10 μM detergent free (%), FRET (hDAGLα [4]; 10 μM, detergent free): 92%

O=C(Oc1ccc([N+](=O)[O-])cc1)N1CCN(Cc2cccc(Oc3ccccc3)c2)CC1 [JZL195]
Pancreatic Lipase (Porcine) inhibition at 10 μM (%) [1]: 43% | mDAGLα inhibition at 10000 nM (%) (mDAGLα): 10% | Lipoprotein Lipase (Bacterial) inhibition at 10 μM (%) [3]: <0% | hDAGLα inhibition at 10 μM detergent free (%), FRET (hDAGLα [4]): 64, 55° % | hDAGLα inhibition at 10 μM detergent free (%), FRET, marker ° (hDAGLα [4]): 64, 55° %

CCCCCCC[C@H]1OC(=O)[C@H]1CCCCCC (relative stereo) [Compound 11, cis-3-Hexyl-4-heptyloxetan-2-one]
Lipoprotein Lipase (Bacterial) inhibition at 10 μM (%) ([3]; 10 μM): 33%

CCCCCCCCCCCCCCCCS(=O)(=O)F [n-C16H33SO2F, Palmitylsulfonyl fluoride]
IC50 (FAAH; read-out: IC50 FAAH with radiolabeled N-arachidonoylethanolamine (anandamide) substrate): 7 nM | rFAAH inhibition at 10 μM (%) (rFAAH): 100^E % | IC50 (rFAAH; read-out: rFAAH apparent IC50 (8 pt, 95% confidence)): 6.3 nM

O=S(=O)(F)Cc1ccccc1 [PMSF, phenylmethylsulfonylfluoride]
effect on DAGL activity reported in the literature (DAGL): poor inhibitors; also recorded: not affected | inhibition of MAGL activity reported in the literature (MAGL [5]): poor inhibitors | binding to the cannabinoid receptors, previous reports (cannabinoid receptors): did not bind | inhibition of hDAGLα in radio-TLC assays (hDAGLα [6]): poor inhibitors | inhibition of FAAH activity reported in the literature (FAAH): poor inhibitors | Lipoprotein Lipase (Bacterial) inhibition at 10 μM (%) [3]: <0%

CCCCCCC[C@@H]1OC(=O)[C@H]1CCCCCC (relative stereo) [Compound 10, trans-3-hexyl-4-heptyloxetan-2-one]
inhibition at 10 µM (MAGL [2]; read-out: hMAGL inhibition at 10 μM (%)): 56% | Lipoprotein Lipase (Bacterial) inhibition at 10 μM (%) ([3]; 10 μM): 67%

CCCCCCCCCCCCCC1CC(=O)O1 (racemic) [Compound 9, 4-Tridecyloxetan-2-one]
inhibition at 10 µM ([1]; read-out: Pancreatic Lipase (Porcine) inhibition at 10 μM (%)): 36% | Lipoprotein Lipase (Bacterial) inhibition at 10 μM (%) ([3]; 10 μM): <0%

1-(5-Dimethyloxazolinyloxyl)stearoyl-2-pyrenebutanoyl-3-methyl-sn-glycerol [Compound 21]
quality as substrate for enzymatic hydrolysis (hDAGLα [7]): poor substrates

CCCCCCCCCCC[C@@H](C[C@@H]1OC(=O)[C@H]1CCCCCC)OC(=O)[C@@H](NC=O)[C@@H](C)CC [Compound 4]
Pancreatic Lipase (Porcine) inhibition at 10 μM (%) ([1]; 10 μM): 99% | hMAGL inhibition at 10 μM (%) (MAGL [2]): 16% | mDAGLα inhibition at 10 nM (%) (mDAGLα): 69% | mDAGLα inhibition at 100 nM (%) (mDAGLα): 80% | mDAGLα inhibition at 1000 nM (%) (mDAGLα): 96% | mDAGLα inhibition at 10000 nM (%) (mDAGLα): 96% | rFAAH inhibition at 10 μM (%) (rFAAH; 10 μM): 7% | Lipoprotein Lipase (Bacterial) inhibition at 10 μM (%) ([3]; 10 μM): 84% | hDAGLα inhibition at 10 μM (0.05% Triton X-100) (%), FRET (hDAGLα [4]; 10 μM): 99% | hDAGLα inhibition at 10 μM detergent free (%), FRET (hDAGLα [4]; 10 μM, detergent free): 92%

1-(16-Dimethyloxazolinyloxyl)stearoyl-2-pyrenebutanoyl-3-methyl-sn-glycerol [Compound 22]
quality as substrate for enzymatic hydrolysis (hDAGLα [7]): poor substrates
